PubChem BioAssay AID1259407 (Chemical Carcinogenesis Research Information System (CCRIS), 2018)
Activity calls are given as the source filed them. The rule behind the calls is not given here.

Tested on: CCRIS mutagenicity, Ames/micronucleus/aberration tests
Assay: CCRIS mutagenicity studies
Conditions: Test System: AMES SALMONELLA TYPHIMURIUM
[1] = Strain/Indicator: TA98, Metabolic Activation: NONE, Method: PREINCUBATION
[2] = Strain/Indicator: TA100, Metabolic Activation: NONE, Method: PREINCUBATION
[3] = Strain/Indicator: TA100, Metabolic Activation: NONE, Method: STANDARD PLATE

## CN(C)CCN(Cc1ccccc1)c1ccccc1
Strain/Indicator: TA98, Metabolic Activation: HAMSTER, LIVER, S-9, AROCLOR 1254 (10%), Method: PREINCUBATION
  mutagenic call: inactive; negative
[1]
  mutagenic call: inactive; negative
Strain/Indicator: TA98, Metabolic Activation: RAT, LIVER, S-9, AROCLOR 1254 (10%), Method: PREINCUBATION
  mutagenic call: inactive; negative
Strain/Indicator: TA100, Metabolic Activation: HAMSTER, LIVER, S-9, AROCLOR 1254 (10%), Method: PREINCUBATION
  mutagenic call: inactive; negative
[2]
  mutagenic call: inactive; negative
Strain/Indicator: TA100, Metabolic Activation: RAT, LIVER, S-9, AROCLOR 1254 (10%), Method: PREINCUBATION
  mutagenic call: inactive; negative
Strain/Indicator: TA1535, Metabolic Activation: HAMSTER, LIVER, S-9, AROCLOR 1254 (10%), Method: PREINCUBATION
  mutagenic call: inactive; negative
Strain/Indicator: TA1535, Metabolic Activation: NONE, Method: PREINCUBATION
  mutagenic call: inactive; negative
Strain/Indicator: TA1535, Metabolic Activation: RAT, LIVER, S-9, AROCLOR 1254 (10%), Method: PREINCUBATION
  mutagenic call: inactive; negative
Strain/Indicator: TA1537, Metabolic Activation: HAMSTER, LIVER, S-9, AROCLOR 1254 (10%), Method: PREINCUBATION
  mutagenic call: inactive; negative
Strain/Indicator: TA1537, Metabolic Activation: NONE, Method: PREINCUBATION
  mutagenic call: inactive; negative
Strain/Indicator: TA1537, Metabolic Activation: RAT, LIVER, S-9, AROCLOR 1254 (10%), Method: PREINCUBATION
  mutagenic call: inactive; negative

## CC(Br)C(=O)NCc1ccccc1 (configuration not stated)
Strain/Indicator: TA100, Metabolic Activation: MOUSE, LIVER, S-9, AROCLOR 1254, Method: STANDARD PLATE
  mutagenic call: active; positive
[3]
  mutagenic call: active; positive

## Cc1c(C(C)C)c(=O)n(-c2ccccc2)n1C
Strain/Indicator: TA98, Metabolic Activation: GUINEA PIG, LIVER, S-9, PCB, Method: PREINCUBATION
  mutagenic call: inactive; negative
Strain/Indicator: TA98, Metabolic Activation: HAMSTER, LIVER, S-9, PCB, Method: PREINCUBATION
  mutagenic call: inactive; negative
Strain/Indicator: TA98, Metabolic Activation: MOUSE, LIVER, S-9, PCB, Method: PREINCUBATION
  mutagenic call: inactive; negative
[1]
  mutagenic call: inactive; negative
Strain/Indicator: TA98, Metabolic Activation: RAT, LIVER, S-9, PCB, Method: PREINCUBATION
  mutagenic call: inactive; negative
Strain/Indicator: TA100, Metabolic Activation: GUINEA PIG, LIVER, S-9, PCB, Method: PREINCUBATION
  mutagenic call: inactive; negative
Strain/Indicator: TA100, Metabolic Activation: HAMSTER, LIVER, S-9, PCB, Method: PREINCUBATION
  mutagenic call: inactive; negative
Strain/Indicator: TA100, Metabolic Activation: MOUSE, LIVER, S-9, PCB, Method: PREINCUBATION
  mutagenic call: inactive; negative
[2]
  mutagenic call: inactive; negative
Strain/Indicator: TA100, Metabolic Activation: RAT, LIVER, S-9, PCB, Method: PREINCUBATION
  mutagenic call: inactive; negative

## CCCCON(OC(C)=O)C(=O)c1ccc(C(C)(C)C)cc1
[3]
  mutagenic call: active; positive
Strain/Indicator: TA100, Metabolic Activation: RAT, S-9, AROCLOR, Method: STANDARD PLATE
  mutagenic call: active; positive

## CC1CNC(=O)N1c1ncc([N+](=O)[O-])s1 (configuration not stated)
Strain/Indicator: TA98, Metabolic Activation: NONE, Method: STANDARD PLATE
  mutagenic call: active; positive
[3]
  mutagenic call: active; positive

## O=C1Nc2cc3ccccc3c3c4c(cc1c23)OCO4
[3]
  mutagenic call: inactive; negative
Strain/Indicator: TA100, Metabolic Activation: RAT, LIVER, S-9, AROCLOR 1254, Method: STANDARD PLATE
  mutagenic call: active; positive
Strain/Indicator: TA1537, Metabolic Activation: NONE, Method: STANDARD PLATE
  mutagenic call: inactive; negative
Strain/Indicator: TA1537, Metabolic Activation: RAT, LIVER, S-9, AROCLOR 1254, Method: STANDARD PLATE
  mutagenic call: active; positive
